In ChEMBL document CHEMBL5291721, “A preclinical secondary pharmacology resource illuminates target-adverse drug reaction associations of marketed drugs” (Nat Commun, 2023):

How the values were obtained:
[1] = molecular target: T1, Alpha-2A adrenergic receptor (Homo sapiens, UniProt P08913)
T1 sequence (P08913 whole entry): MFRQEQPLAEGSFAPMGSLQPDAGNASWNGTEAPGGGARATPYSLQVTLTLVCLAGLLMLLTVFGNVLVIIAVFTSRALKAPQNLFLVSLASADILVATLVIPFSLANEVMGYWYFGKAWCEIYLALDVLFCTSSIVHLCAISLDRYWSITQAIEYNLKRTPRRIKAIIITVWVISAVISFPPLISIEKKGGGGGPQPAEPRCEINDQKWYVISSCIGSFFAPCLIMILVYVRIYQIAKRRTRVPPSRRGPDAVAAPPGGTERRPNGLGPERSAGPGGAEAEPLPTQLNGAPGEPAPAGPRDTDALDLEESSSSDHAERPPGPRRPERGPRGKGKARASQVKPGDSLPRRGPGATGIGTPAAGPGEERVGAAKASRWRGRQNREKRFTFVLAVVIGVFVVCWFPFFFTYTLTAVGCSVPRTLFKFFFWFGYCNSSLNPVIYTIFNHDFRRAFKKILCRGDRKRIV

[2] = molecular target: Estrogen receptor beta (Homo sapiens, UniProt Q92731)
[3] = molecular target: T2, Alpha-1A adrenergic receptor (Homo sapiens, UniProt P35348)
T2 sequence (P35348 whole entry): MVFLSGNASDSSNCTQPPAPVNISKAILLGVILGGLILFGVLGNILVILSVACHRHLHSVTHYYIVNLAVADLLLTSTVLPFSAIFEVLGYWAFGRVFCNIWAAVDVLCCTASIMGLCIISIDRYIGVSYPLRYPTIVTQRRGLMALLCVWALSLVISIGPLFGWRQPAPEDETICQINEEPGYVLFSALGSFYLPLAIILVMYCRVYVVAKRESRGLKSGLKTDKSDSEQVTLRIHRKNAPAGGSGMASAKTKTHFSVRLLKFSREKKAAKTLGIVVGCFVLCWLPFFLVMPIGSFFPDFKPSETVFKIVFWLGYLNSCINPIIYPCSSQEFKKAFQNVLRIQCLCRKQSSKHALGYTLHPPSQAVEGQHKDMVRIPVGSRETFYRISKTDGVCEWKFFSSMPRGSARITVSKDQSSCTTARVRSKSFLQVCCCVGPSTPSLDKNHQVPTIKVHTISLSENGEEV

[4] = molecular target: Sodium channel protein type 5 subunit alpha (Homo sapiens, UniProt Q14524); assay type: functional, cell-based
[5] = molecular target: T3, Histamine H1 receptor (Homo sapiens, UniProt P35367); assay type: functional, cell-based
[6] = molecular target: T4, Peroxisome proliferator-activated receptor gamma (Homo sapiens, UniProt P37231); assay type: functional
T4 sequence (P37231 whole entry): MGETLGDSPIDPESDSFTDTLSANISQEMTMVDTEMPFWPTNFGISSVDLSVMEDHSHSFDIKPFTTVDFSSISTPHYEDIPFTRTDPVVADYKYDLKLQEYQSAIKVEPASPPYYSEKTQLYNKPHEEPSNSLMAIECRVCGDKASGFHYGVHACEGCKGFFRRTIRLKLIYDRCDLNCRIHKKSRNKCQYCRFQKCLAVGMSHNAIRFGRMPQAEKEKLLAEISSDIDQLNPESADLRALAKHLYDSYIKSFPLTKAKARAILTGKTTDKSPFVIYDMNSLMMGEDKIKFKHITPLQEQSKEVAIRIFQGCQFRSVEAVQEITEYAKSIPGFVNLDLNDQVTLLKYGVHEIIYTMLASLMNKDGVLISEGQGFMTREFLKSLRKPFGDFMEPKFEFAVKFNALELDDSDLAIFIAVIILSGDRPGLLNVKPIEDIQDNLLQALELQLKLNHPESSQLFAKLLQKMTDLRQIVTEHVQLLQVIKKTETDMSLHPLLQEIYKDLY

[7] = molecular target: T5, Gamma-aminobutyric acid receptor subunit alpha-1/alpha-2/beta-2/gamma-2 (Homo sapiens, UniProt P14867+P18507+P47869+P47870); assay type: functional, cell-based
[8] = molecular target: T3, Histamine H1 receptor; assay type: functional, cell-based; remark: listed apart in the source
[9] = molecular target: T5, Gamma-aminobutyric acid receptor subunit alpha-1/alpha-2/beta-2/gamma-2; assay type: functional, cell-based; remark: listed apart in the source
[10] = molecular target: Gamma-aminobutyric acid type B receptor subunit 1 (Homo sapiens, UniProt Q9UBS5)
[11] = molecular target: Cannabinoid receptor 1 (Homo sapiens, UniProt P21554); assay type: functional
[12] = molecular target: 5-hydroxytryptamine receptor 7 (Homo sapiens, UniProt P34969)
[13] = molecular target: 5-hydroxytryptamine receptor 6 (Homo sapiens, UniProt P50406)
[14] = molecular target: T6, Muscarinic acetylcholine receptor M5 (Homo sapiens, UniProt P08912)
T6 sequence (P08912 whole entry): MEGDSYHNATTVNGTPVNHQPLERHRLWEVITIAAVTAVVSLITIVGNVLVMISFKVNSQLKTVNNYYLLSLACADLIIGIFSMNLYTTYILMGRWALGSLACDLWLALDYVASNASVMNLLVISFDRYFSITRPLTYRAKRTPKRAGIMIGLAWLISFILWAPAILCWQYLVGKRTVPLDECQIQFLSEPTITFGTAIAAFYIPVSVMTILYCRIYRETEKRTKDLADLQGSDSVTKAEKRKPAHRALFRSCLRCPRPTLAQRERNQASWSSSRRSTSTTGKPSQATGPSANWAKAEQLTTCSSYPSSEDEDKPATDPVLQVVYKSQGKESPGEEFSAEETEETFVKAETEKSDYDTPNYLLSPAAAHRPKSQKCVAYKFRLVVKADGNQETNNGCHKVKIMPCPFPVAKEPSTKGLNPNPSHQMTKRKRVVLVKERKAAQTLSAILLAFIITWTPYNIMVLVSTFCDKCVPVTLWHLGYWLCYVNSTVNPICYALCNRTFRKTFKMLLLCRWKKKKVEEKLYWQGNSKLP
Also: assay procedure not described here.

Chain of 5-hydroxytryptamine receptor 6 (P50406 whole entry): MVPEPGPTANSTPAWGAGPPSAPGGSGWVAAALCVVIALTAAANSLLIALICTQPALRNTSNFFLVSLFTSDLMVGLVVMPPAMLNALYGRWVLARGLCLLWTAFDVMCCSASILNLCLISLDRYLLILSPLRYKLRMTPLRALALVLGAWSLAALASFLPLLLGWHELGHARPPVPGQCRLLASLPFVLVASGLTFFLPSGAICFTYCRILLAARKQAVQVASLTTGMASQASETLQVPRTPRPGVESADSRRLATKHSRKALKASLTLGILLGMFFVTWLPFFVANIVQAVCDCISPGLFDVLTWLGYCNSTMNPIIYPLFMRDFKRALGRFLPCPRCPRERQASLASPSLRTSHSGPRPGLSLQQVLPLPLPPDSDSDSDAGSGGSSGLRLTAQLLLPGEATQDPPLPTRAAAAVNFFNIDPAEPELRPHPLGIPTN
T5 sequence (P14867 whole entry): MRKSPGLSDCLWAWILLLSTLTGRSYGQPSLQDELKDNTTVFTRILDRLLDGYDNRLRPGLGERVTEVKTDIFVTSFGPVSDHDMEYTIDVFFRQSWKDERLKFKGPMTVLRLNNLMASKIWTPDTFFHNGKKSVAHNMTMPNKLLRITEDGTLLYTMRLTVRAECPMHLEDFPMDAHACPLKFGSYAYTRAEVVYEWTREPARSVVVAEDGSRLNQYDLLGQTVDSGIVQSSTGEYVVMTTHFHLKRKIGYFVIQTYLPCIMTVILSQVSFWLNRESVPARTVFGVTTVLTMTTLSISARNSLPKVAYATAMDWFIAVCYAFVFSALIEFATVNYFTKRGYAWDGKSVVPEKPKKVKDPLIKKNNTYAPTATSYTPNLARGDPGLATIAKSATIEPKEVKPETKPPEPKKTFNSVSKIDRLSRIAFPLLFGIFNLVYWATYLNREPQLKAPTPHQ
T5 sequence (P47870 whole entry): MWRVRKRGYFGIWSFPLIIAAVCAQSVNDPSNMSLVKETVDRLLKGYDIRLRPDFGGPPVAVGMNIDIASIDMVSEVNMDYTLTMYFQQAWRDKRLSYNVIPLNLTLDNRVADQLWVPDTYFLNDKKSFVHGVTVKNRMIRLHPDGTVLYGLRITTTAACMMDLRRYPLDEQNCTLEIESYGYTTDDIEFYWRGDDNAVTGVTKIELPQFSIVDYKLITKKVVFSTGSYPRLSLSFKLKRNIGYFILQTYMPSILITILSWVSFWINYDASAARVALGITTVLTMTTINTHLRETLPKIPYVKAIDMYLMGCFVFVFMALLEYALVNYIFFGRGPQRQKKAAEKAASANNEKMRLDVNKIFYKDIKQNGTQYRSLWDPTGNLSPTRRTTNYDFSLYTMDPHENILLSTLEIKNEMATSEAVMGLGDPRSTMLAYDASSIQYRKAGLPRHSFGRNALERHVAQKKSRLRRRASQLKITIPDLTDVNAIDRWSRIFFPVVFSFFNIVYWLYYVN
T5 sequence (P18507 whole entry): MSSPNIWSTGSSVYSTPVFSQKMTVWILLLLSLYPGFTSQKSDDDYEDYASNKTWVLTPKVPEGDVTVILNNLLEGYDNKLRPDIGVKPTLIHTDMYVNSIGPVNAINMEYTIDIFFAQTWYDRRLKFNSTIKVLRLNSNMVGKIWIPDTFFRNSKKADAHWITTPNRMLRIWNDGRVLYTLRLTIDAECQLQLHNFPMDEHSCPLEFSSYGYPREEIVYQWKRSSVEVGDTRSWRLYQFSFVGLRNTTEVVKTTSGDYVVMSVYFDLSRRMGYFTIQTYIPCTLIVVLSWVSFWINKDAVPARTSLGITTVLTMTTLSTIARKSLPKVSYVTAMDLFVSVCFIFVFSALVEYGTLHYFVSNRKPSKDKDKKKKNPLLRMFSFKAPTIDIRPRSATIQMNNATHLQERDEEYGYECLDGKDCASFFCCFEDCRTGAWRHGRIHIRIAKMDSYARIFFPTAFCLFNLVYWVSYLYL
T5 sequence (P47869 whole entry): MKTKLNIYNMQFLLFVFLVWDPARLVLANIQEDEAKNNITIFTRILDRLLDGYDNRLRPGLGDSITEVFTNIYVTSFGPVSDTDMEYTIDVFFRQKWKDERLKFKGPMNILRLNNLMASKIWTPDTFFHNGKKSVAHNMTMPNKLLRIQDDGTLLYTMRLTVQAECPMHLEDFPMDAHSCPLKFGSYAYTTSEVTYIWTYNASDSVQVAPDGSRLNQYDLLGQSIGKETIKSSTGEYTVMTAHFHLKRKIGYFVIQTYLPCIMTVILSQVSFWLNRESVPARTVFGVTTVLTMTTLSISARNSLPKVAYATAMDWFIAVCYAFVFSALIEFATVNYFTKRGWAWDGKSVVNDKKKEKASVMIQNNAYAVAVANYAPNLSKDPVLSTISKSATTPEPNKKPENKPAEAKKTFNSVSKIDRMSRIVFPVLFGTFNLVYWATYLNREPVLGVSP
Chain of Cannabinoid receptor 1 (P21554 whole entry): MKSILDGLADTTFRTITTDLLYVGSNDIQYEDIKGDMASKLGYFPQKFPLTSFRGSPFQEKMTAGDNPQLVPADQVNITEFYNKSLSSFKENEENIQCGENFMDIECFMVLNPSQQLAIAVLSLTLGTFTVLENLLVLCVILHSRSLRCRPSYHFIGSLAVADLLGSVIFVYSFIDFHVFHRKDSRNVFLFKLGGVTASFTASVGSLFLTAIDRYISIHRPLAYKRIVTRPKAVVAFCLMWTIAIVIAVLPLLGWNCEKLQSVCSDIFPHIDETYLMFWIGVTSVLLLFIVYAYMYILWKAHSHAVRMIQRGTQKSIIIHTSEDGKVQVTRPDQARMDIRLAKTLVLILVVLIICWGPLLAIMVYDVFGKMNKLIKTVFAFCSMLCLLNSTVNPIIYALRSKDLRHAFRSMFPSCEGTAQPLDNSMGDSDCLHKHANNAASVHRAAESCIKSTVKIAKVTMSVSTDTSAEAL
Chain of 5-hydroxytryptamine receptor 7 (P34969 whole entry): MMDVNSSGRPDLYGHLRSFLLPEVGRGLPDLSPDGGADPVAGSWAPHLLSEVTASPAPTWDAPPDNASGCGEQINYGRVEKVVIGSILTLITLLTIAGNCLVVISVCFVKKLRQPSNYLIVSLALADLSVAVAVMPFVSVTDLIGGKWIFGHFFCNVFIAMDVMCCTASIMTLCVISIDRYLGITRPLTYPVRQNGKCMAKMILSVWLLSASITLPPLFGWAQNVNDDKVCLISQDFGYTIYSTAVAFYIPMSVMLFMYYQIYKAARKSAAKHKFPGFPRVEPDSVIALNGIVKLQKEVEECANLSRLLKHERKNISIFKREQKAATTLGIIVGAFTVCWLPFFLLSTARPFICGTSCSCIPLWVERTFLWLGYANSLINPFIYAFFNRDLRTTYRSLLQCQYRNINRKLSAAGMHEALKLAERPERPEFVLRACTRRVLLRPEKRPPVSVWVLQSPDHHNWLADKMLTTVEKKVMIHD
Chain of Estrogen receptor beta (Q92731 whole entry): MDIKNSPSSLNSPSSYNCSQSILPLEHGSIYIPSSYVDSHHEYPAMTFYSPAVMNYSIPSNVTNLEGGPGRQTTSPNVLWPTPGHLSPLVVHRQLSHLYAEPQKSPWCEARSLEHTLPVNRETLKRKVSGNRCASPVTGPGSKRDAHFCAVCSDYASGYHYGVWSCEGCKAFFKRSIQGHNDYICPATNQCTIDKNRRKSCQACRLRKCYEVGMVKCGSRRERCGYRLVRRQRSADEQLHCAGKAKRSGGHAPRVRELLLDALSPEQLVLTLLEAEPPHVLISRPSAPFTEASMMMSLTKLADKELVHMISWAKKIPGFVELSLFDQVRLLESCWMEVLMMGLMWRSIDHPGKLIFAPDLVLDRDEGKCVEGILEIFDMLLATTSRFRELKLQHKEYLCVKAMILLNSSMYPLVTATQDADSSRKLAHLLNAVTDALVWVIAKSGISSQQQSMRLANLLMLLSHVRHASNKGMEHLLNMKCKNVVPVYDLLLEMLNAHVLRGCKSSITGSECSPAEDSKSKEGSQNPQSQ
T3 sequence (P35367 whole entry): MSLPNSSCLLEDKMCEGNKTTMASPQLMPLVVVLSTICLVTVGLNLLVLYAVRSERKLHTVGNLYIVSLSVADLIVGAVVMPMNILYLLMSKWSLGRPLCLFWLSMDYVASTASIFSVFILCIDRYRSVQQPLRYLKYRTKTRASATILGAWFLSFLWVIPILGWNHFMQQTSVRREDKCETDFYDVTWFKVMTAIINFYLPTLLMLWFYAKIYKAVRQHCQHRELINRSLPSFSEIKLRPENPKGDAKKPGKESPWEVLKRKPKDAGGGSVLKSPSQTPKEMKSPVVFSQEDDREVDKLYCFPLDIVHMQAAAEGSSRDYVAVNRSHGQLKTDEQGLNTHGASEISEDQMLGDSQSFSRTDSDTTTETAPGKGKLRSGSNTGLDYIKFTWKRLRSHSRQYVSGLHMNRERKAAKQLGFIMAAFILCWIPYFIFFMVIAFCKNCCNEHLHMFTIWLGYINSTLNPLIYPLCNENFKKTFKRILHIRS

Structure (SMILES): CNC1=Nc2ccc(Cl)cc2C(c2ccccc2)=[N+]([O-])C1 [CHLORDIAZEPOXIDE]
- AC50 [1]: > 10 µM

Structure (SMILES): CCC[C@H](NC(=O)[C@@H]1[C@H]2CCC[C@H]2CN1C(=O)[C@@H](NC(=O)[C@@H](NC(=O)c1cnccn1)C1CCCCC1)C(C)(C)C)C(=O)C(=O)NC1CC1
- AC50 [1]: > 10 µM

Structure (SMILES): CC(CCc1ccc(O)cc1)NCCc1ccc(O)c(O)c1 (centres undefined) [DOBUTAMINE]
- AC50 [2]: > 30 µM
- AC50 [3]: 0.0704 µM
- AC50 [1]: 10.8 µM

Structure (SMILES): C[C@]12CC[C@@H]3c4ccc(O)cc4C[C@@H](CCCCCCCCC[S+]([O-])CCCC(F)(F)C(F)(F)F)[C@H]3[C@@H]1CC[C@@H]2O (some centres undefined) [FULVESTRANT]
- AC50 [4]: > 10 µM
- AC50 [5]: > 30 µM
- AC50 [6]: 14 µM
- AC50 [7]: > 30 µM
- AC50 [8]: > 30 µM
- AC50 [9]: > 30 µM

Structure (SMILES): OC1(c2ccc(Cl)cc2)c2ccccc2C2=NCCN21 (centres undefined) [MAZINDOL]
- AC50 [10]: > 10 µM
- AC50 [4]: > 50 µM
- AC50 [2]: > 30 µM
- AC50 [3]: > 10 µM
- AC50 [11]: > 10 µM
- AC50 [1]: > 10 µM
- AC50 [12]: > 10 µM
- AC50 [13]: > 10 µM
- AC50 [14]: > 10 µM

Structure (SMILES): O=[N+]([O-])c1ccc(O)c2ncccc12 [NITROXOLINE]
- AC50 [7]: > 30 µM
- AC50 [9]: > 30 µM

Structure (SMILES): Oc1ccc2c(c1)CC[C@H](c1ccccc1)[C@@H]2c1ccc(OCCN2CCCC2)cc1 [LASOFOXIFENE]
- AC50 [6]: 18 µM
- AC50 [9]: > 30 µM

Structure (SMILES): C[C@H](Cc1ccc(O)c(O)c1)[C@@H](C)Cc1ccc(O)c(O)c1 [MASOPROCOL]
- AC50 [5]: 23 µM
- AC50 [6]: 0.4 µM
- AC50 [8]: > 30 µM

Structure (SMILES): CC(C)COCC(CN(Cc1ccccc1)c1ccccc1)N1CCCC1 (centres undefined) [BEPRIDIL]
- AC50 [4]: 2.1 µM
- AC50 [2]: > 30 µM
- AC50 [6]: > 30 µM

Structure (SMILES): CCC(=O)O[C@]1(C(=O)SCF)[C@H](C)C[C@H]2[C@@H]3C[C@H](F)C4=CC(=O)C=C[C@]4(C)[C@@]3(F)[C@@H](O)C[C@@]21C [FLUTICASONE PROPIONATE]
- AC50 [3]: > 10 µM
- AC50 [1]: > 10 µM

Structure (SMILES): CCC(C)C1(CC)C(=O)NC(=O)NC1=O (centres undefined) [BUTABARBITAL]
- AC50 [6]: > 30 µM

Structure (SMILES): CN1CCN(C2=Nc3ccccc3Oc3ccc(Cl)cc32)CC1 [LOXAPINE]
- AC50 [10]: > 10 µM
- AC50 [2]: > 30 µM
- AC50 [3]: 0.169 µM
- AC50 [11]: > 10 µM
- AC50 [12]: 0.732 µM
- AC50 [13]: 0.0574 µM
- AC50 [14]: 0.671 µM

Structure (SMILES): [H]/N=C(/N)N/C(=N/[H])NCCc1ccccc1 [PHENFORMIN]
- AC50 [2]: > 30 µM
- AC50 [1]: 6.71 µM

Structure (SMILES): CC(C)NCC(O)c1ccc(O)c(O)c1 (centres undefined) [ISOPROTERENOL]
- AC50 [2]: > 30 µM

Structure (SMILES): C/N=C(\NC)NCc1ccccc1 [BETHANIDINE]
- AC50 [6]: > 30 µM
- AC50 [7]: > 30 µM
- AC50 [9]: > 30 µM

Structure (SMILES): CC(=O)N[C@@H](CS)C(=O)O [ACETYLCYSTEINE]
- AC50 [5]: > 30 µM
- AC50 [8]: > 30 µM

Structure (SMILES): CCC1(c2ccccc2)CCC(=O)NC1=O (centres undefined) [GLUTETHIMIDE]
- AC50 [4]: > 50 µM

Structure (SMILES): CN1CCC(=C2c3ccccc3CCc3cccnc32)CC1 [AZATADINE]
- AC50 [5]: 0.0665 µM
- AC50 [1]: > 10 µM
- AC50 [8]: > 30 µM

Structure (SMILES): Cc1cc(C(C)(C)C)cc(C)c1CC1=NCCN1 [XYLOMETAZOLINE]
- AC50 [1]: 0.03 µM
- AC50 [7]: > 30 µM
- AC50 [9]: > 30 µM

Structure (SMILES): O=C(O)c1cn(C2CC2)c2cc(N3CCNCC3)c(F)cc2c1=O [CIPROFLOXACIN]
- AC50 [2]: > 30 µM

Structure (SMILES): CC12CC3CC(C)(C1)CC(N)(C3)C2 [MEMANTINE]
- AC50 [5]: > 30 µM
- AC50 [2]: > 30 µM
- AC50 [8]: > 30 µM

Structure (SMILES): Cc1cnc(C(=O)NCCc2ccc(S(=O)(=O)NC(=O)NC3CCCCC3)cc2)cn1 [GLIPIZIDE]
- AC50 [10]: > 10 µM
- AC50 [2]: > 30 µM
- AC50 [3]: > 10 µM
- AC50 [1]: > 10 µM
- AC50 [12]: > 10 µM
- AC50 [13]: > 10 µM

Structure (SMILES): CC(N)C(O)c1ccccc1 (centres undefined) [PHENYLPROPANOLAMINE]
- AC50 [10]: > 10 µM
- AC50 [3]: > 10 µM
- AC50 [11]: > 10 µM
- AC50 [1]: > 10 µM
- AC50 [12]: > 10 µM
- AC50 [13]: > 10 µM
- AC50 [14]: > 10 µM

Structure (SMILES): CCC(C)C(CC)C(N)=O (centres undefined) [VALNOCTAMIDE]
- AC50 [5]: > 30 µM
- AC50 [7]: > 30 µM
- AC50 [8]: > 30 µM
- AC50 [9]: > 30 µM

Structure (SMILES): CCOC(=O)C1=C(C)NC(C)=C(C(=O)OC)C1c1cccc([N+](=O)[O-])c1 (centres undefined) [NITRENDIPINE]
- AC50 [4]: 5 µM
- AC50 [2]: > 30 µM
- AC50 [1]: > 10 µM
